Results: patent publication US20240344241A1, “PROTEINACEOUS MOLECULES AND USES THEREFOR” (THE UNIVERSITY OF QUEENSLAND, priority 2021, published 2024)
Bridge positions count the residues as written; N and C are the ends. Peptide text beside a SMILES is read from it.

Key:
bovine trypsin = biological target: T1, bovine trypsin (Bos taurus, UniProt P00760); assay: Surface plasmon resonance binding to trypsin
T1 sequence (P00760 24-246): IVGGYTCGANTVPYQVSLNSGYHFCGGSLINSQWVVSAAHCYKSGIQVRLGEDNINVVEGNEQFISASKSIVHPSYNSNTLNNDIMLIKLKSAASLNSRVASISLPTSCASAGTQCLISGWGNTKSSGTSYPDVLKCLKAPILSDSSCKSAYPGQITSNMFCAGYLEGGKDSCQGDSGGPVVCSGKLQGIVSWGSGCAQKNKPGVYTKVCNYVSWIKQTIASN

Human β-FXIIa = biological target: T2, Human β-FXIIa (Homo sapiens, UniProt P00748); assay: FXIIa competitive inhibition assay, colorimetric substrate Ac-QRFR-pNA; type: biochemical
T2 construct: Human β-FXIIa was obtained from Molecular Innovations, together with human FXa, human FXIa, human α-thrombin, and human plasma kallikrein; purchased Molecular Innovations; host or cells: purified from human plasma
T2 sequence (P00748 373-615 limits assumed, other chains not shown): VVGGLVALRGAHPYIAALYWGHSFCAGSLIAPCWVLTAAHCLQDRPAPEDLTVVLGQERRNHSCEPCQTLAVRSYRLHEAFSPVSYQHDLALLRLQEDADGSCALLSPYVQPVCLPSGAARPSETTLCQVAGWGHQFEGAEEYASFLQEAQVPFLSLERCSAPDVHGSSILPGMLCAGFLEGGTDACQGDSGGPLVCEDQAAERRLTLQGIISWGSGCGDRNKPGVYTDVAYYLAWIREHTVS
Outline: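 Enzyme and substrate levels differ per protease. Inhibitor–enzyme mixtures reach equilibrium at room temperature at pH 8.0 with 10 mM CaCl2 before substrate addition; continuous absorbance (405 nm) or fluorescence (360/460 nm) readout gives Morrison Ki.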

Human FXa = biological target: T3, Human FXa (Homo sapiens, UniProt P00742); assay: FXa inhibition assay; type: biochemical
T3 construct: Human β-FXIIa was obtained from Molecular Innovations, together with human FXa, human FXIa, human α-thrombin, and human plasma kallikrein; purchased Molecular Innovations; host or cells: purified from human plasma
T3 sequence (P00742 235-488 limits assumed): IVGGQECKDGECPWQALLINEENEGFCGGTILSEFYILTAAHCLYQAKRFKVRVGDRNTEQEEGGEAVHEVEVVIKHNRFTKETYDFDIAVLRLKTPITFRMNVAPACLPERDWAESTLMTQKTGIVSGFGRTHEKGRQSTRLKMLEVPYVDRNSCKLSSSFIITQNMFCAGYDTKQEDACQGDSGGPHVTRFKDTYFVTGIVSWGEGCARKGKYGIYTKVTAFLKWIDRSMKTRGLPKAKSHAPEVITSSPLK
T3 sequence (P00742 41-179 partner limits assumed): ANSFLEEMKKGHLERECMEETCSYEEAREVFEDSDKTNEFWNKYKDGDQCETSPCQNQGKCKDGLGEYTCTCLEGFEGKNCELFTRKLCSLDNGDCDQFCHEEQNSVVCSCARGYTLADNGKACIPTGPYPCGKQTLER
Experimental: (§1) The activity of acyclic and cyclic MCoFx1-5 and analogues thereof was assessed in competitive inhibition assays, as previously described in Swedberg et al. (2016) J Med Chem, 59: 7287-7292. Human β-FXIIa was obtained from Molecular Innovations, together with human FXa, human FXIa, human α-thrombin, and human plasma kallikrein. Human cationic trypsin and human plasmin were obtained from Sigma-Aldrich, and recombinant human matriptase was sourced from R&D Systems. Recombinant human urokinase (uPA) and recombinant human tissue plasminogen activator (tPA) were expressed in Expi293 cells, as previously described in Li et al. (2019) Chembiochem, 20: 46-50. FXIIa inhibition assays were performed in clear, low-binding 96-well plates using 250 μL (final volume) of assay buffer (0.1 M Tris-HCl pH 8.0, 0.1 M NaCl, 10 mM CaCl2 and 0.005% Triton X-100). Inhibitors were serially diluted and incubated with 10 nM FXIIa at room temperature to reach equilibrium. After adding 100 μM Ac-QRFR-pNA substrate (KM=162 μM), enzymatic activity was measured by monitoring release of the pNA moiety using a TECAN infinite M1000 Pro plate reader (A=405 nm, reading interval, 10 s; assay time course, 7 min). Assays were conducted in three times in duplicate. Substrate kinetic constants (Michaelis-Menten) and inhibition constants (Morrison K) were determined by non-linear regression using Prism 7 (GraphPad). Selectivity assays with off-target proteases were performed in a similar way, except that different concentrations of enzyme and substrate were used, as indicated in Table 16. For assays using a fluorescent substrate (peptide-4-methylcoumaryl-7-amide, MCA), black low-binding 96-well plates were used and activity was measured using a TECAN infinite M1000 pro plate reader (λex 360 nm, λem 460 nm, reading interval, 30 s; assay time course, 5-30 min).

Human FXIa = biological target: T4, Human FXIa (Homo sapiens, UniProt P03951); assay: FXIa inhibition assay; type: biochemical
T4 construct: Human β-FXIIa was obtained from Molecular Innovations, together with human FXa, human FXIa, human α-thrombin, and human plasma kallikrein; purchased Molecular Innovations; host or cells: purified from human plasma
T4 sequence (P03951 388-625 limits assumed): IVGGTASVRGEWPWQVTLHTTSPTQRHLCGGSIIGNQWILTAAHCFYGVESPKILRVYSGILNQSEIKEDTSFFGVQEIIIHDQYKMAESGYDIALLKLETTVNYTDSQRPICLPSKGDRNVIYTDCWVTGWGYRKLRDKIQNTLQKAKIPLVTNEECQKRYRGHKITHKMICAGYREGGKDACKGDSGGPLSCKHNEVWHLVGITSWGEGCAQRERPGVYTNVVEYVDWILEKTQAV
T4 sequence (P03951 19-387 partner limits assumed): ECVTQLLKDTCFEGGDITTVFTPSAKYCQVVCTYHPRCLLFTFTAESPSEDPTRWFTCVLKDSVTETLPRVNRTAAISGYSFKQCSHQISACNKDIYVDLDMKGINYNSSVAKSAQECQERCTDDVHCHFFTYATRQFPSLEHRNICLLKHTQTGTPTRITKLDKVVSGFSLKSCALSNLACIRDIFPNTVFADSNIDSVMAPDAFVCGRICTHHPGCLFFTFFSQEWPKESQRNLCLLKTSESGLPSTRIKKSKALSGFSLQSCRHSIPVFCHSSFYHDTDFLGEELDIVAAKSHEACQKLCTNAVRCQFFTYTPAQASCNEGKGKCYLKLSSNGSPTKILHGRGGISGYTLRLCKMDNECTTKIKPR
Experimental: as §1

Human thrombin = biological target: T5, Human thrombin (Homo sapiens, UniProt P00734); assay: Thrombin inhibition assay; type: biochemical
T5 construct: Human β-FXIIa was obtained from Molecular Innovations, together with human FXa, human FXIa, human α-thrombin, and human plasma kallikrein; purchased Molecular Innovations; host or cells: purified from human plasma
Experimental: as §1

Human plasma kallikrein = biological target: T6, Human plasma kallikrein (Homo sapiens, UniProt P03952); assay: Plasma kallikrein inhibition assay; type: biochemical
T6 construct: Human β-FXIIa was obtained from Molecular Innovations, together with human FXa, human FXIa, human α-thrombin, and human plasma kallikrein; purchased Molecular Innovations; host or cells: purified from human plasma
T6 sequence (P03952 391-638 limits assumed): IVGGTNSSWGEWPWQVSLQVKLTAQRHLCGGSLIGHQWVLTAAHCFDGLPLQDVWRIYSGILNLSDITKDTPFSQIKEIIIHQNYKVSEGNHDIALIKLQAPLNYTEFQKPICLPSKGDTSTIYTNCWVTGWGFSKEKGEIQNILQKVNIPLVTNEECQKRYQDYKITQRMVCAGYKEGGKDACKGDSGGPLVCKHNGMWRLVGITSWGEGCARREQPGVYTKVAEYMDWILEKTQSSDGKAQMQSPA
T6 sequence (P03952 20-390 partner limits assumed): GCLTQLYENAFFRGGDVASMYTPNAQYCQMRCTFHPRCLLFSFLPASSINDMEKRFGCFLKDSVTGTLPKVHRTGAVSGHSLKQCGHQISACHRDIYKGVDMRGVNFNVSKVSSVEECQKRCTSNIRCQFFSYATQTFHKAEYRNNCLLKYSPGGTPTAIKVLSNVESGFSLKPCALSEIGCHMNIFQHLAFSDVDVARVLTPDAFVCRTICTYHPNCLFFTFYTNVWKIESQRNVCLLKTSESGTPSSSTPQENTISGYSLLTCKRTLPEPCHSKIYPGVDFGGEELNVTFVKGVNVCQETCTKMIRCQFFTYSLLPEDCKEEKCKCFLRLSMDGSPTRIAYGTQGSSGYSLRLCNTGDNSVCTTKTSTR
Experimental: as §1

Human plasmin = biological target: T7, Human plasmin (Homo sapiens, UniProt P00747); assay: Plasmin inhibition assay; type: biochemical
T7 construct: Human cationic trypsin and human plasmin were obtained from Sigma-Aldrich, and recombinant human matriptase was sourced from R&D Systems; purchased Sigma-Aldrich; host or cells: purified from human plasma
T7 sequence (P00747 581-810 limits assumed): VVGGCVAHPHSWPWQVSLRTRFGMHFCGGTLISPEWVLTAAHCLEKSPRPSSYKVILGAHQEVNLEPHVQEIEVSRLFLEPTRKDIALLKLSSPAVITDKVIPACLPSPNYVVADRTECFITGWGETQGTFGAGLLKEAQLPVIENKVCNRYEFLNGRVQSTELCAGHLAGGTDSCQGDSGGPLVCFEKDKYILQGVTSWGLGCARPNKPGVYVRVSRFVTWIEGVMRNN
T7 sequence (P00747 97-580 partner limits assumed): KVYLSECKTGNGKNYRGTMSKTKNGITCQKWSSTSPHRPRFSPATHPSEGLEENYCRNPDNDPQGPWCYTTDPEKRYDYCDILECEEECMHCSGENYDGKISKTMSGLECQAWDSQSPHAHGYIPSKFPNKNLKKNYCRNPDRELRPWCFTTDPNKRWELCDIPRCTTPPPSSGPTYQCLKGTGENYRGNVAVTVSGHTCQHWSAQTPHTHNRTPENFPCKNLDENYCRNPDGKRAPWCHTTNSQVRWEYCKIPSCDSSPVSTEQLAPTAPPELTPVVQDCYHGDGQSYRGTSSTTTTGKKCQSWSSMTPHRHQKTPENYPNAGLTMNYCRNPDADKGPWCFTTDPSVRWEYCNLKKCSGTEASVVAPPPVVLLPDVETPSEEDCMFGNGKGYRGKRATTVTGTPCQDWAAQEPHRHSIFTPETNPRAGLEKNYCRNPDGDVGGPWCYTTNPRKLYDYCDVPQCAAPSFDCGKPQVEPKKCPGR
Experimental: as §1

Rec. human uPA = biological target: T8, Rec. human uPA (Homo sapiens, UniProt P00749); assay: uPA inhibition assay; type: biochemical
T8 construct: made in house; host or cells: Expi293 cells
Experimental: as §1

Rec. human tPA = biological target: T9, Rec. human tPA (Homo sapiens, UniProt P00750); assay: tPA inhibition assay; type: biochemical
T9 construct: made in house; host or cells: Expi293 cells
T9 sequence (P00750 36-562): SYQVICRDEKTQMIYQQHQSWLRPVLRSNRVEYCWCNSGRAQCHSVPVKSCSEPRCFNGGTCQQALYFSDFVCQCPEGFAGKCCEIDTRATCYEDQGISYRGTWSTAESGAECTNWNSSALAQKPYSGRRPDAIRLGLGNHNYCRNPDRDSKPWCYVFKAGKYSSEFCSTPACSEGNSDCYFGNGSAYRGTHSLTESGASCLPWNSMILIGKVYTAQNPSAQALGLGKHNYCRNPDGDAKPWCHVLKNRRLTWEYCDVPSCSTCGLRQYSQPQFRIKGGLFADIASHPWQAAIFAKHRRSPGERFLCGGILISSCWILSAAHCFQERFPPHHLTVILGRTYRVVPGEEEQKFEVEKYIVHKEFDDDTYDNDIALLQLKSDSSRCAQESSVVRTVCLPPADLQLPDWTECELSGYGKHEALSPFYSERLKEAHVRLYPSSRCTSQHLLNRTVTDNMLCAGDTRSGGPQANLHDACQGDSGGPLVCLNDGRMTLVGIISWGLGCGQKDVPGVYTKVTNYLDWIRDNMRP
Experimental: as §1

[1] = test system: clotting via the intrinsic pathway; assay: Activated partial thromboplastin time (aPTT) assay in human plasma; type: biochemical
Source text: (§2) Citrated, platelet-poor plasma samples from healthy adults were collected, prepared, and stored using previously established collection protocols, such as in Zdenek et al. (2019) Toxicol in Vitro, 58: 97-109.
(§3) Standard coagulation assays were used to determine the effect of the inhibitors on the clotting time of human plasma. Activated partial thromboplastin time (aPTT) uses a Kaolin reagent (clay) to activate the intrinsic/contact pathway of the coagulation cascade, whereas prothrombin time (PT) uses Neoplastine (lyophilized thromboplastin prepared from rabbit cerebral tissue) to activate the extrinsic/tissue-factor pathway of the coagulation cascade. A minor adjustment was made to both tests (addition of 25 μL inhibitor or buffer; refer to Table 17) to accommodate the addition of an inhibitor without changing the total volume (and therefore relative ratios of additives) of the assay. Concentrations of inhibitor are reported as the concentration at the point of incubation in the assay, i.e. not taking into account the addition of the start reagent (calcium for aPTT, or Neoplastine for PT).
(§4) Clotting time (seconds) of plasma was automatically measured using a STA-R Max® analyzer (Stago, Asnieres sur Seine, France). Measurements were conducted using a viscosity-based (mechanical) detection system, whereby opposing magnets oscillate a small metal spherical pellet inside the test cuvette (250 μL total volume) until a clot is formed. Dilution of the inhibitor in Owren-Koller (OK) buffer for dose-response curves was performed automatically by the machine. Reagents were kept at 15-19° C. in the machine during experimentation and otherwise stored at 4° C. All tests were performed in triplicate.

[2] = test system: clotting via the extrinsic pathway; assay: Prothrombin time (PT) assay in human plasma; type: biochemical; conditions: at 10 μM
Source text: as §2, §3, §4

[3] = test system: human umbilical vein endothelial cells (HUVECs)
Experimental: HUVECs were cultured in complete EGM™-2 medium until 80% confluence under 5% CO2 at 37° C. before being seeded onto a 96-well microplate at 5,000 cells/well. Cells were grown for 24 h prior to the assay. […] Peptides were diluted tenfold with serum-free EGM™-2 medium and incubated with HUVECs in triplicate. After 24 h incubation, peptide solutions were replaced with fresh complete EGM™-2 medium before the addition of 0.05% resazurin solution (Sigma-Aldrich). Cells were incubated for another 8 h and the absorbance of the plate was measured on a microplate reader at 540 and 620 nm. H2O and 1% Triton-X were used as control for 100 and 0% viability, separately.

`CC[C@H](C)[C@@H]1NC(=O)CNC(=O)CNC(=O)[C@H](CC(=O)O)NC(=O)[C@H](Cc2ccc(O)cc2)NC(=O)CNC(=O)[C@H](CO)NC(=O)CNC(=O)[C@@H]2CSSC[C@@H]3NC(=O)[C@H](CC(=O)O)NC(=O)[C@H](CO)NC(=O)[C@H](CC(=O)O)NC(=O)[C@H](CCCNC(=N)N)NC(=O)[C@H](CCCNC(=N)N)NC(=O)[C@@H]4CSSC[C@H](NC(=O)[C@H]([C@@H](C)CC)NC(=O)[C@H](CSSC[C@H](NC1=O)C(=O)N1CCC[C@H]1C(=O)N[C@@H](CCCNC(=N)N)C(=O)N[C@@H]([C@@H](C)CC)C(=O)NCC(=O)N[C@@H](CCCNC(=N)N)C(=O)N[C@@H](CC(C)C)C(=O)N4)NC(=O)[C@H](C)NC(=O)CNC(=O)[C@@H]1CCCN1C3=O)C(=O)N[C@@H](CCCNC(=N)N)C(=O)N[C@@H](C)C(=O)N[C@@H]([C@@H](C)O)C(=O)N[C@@H](CCCNC(=N)N)C(=O)N[C@@H](Cc1ccccc1)C(=O)N2` [MCoFx1 cyclic] (cyclo(ACICRATRFCGSGYDGGICPRIGRLCRRDSDCPG); disulfide 2-19, 4-26, 10-32) was tested. Which Kd (bovine trypsin; Table 8, cyclic form, read-out: KD (nM) Trypsin Cyclic) did it give?
The Kd was 31.5 nM.

What about the “fold lower affinity for trypsin compared with MCoTI-II” value (bovine trypsin; ratio of KD values) of the same compound?
Its value is 300 fold.

And the Ki (Human β-FXIIa; Table 7, FXIIa, cyclic form of the peptide, read-out: Ki (nM) Cyclic)?
The Ki was 0.37 ± 0.04 nM.

And the “fold more potent than MCoTI-II (FXIIa Ki)” value (Human β-FXIIa; ratio of Ki values)?
Its value is 350 fold.

And the “difference in Ki FXIIa versus trypsin” value (Human β-FXIIa; selectivity)?
The value was “exceeds three orders of magnitude”.

And the inhibition at 5 µM (Human FXa; at 5 μM, read-out: percent inhibition FXa)?
Its inhibition at 5 µM is 0%.

What about the IC50 (Human FXa; read-out: IC50 FXa) of the same compound?
Its IC50 is > 5 µM.

What about the inhibition at 5 µM (Human FXIa; at 5 μM, read-out: percent inhibition FXIa) of the same compound?
The inhibition at 5 µM was 0%.

What about the IC50 (Human FXIa; read-out: IC50 FXIa) of the same compound?
The IC50 was > 5 µM.

And the inhibition at 5 µM (Human thrombin; at 5 μM, read-out: percent inhibition Thrombin)?
Its inhibition at 5 µM is 2%.

And the IC50 (Human thrombin; read-out: IC50 Thrombin)?
The IC50 was > 5 µM.

What about the inhibition at 5 µM (Human plasma kallikrein; at 5 μM, read-out: percent inhibition Plasma kallikrein) of the same compound?
Its inhibition at 5 µM is 0%.

And the IC50 (Human plasma kallikrein; read-out: IC50 Plasma kallikrein)?
Its IC50 is > 5 µM.

What about the inhibition at 5 µM (Human plasmin; at 5 μM, read-out: percent inhibition Plasmin) of the same compound?
The inhibition at 5 µM was 13%.

What about the IC50 (Human plasmin; read-out: IC50 Plasmin) of the same compound?
Its IC50 is > 5 µM.

What about the inhibition at 5 µM (Rec. human uPA; at 5 μM, read-out: percent inhibition uPA) of the same compound?
The inhibition at 5 µM was 0%.

What about the IC50 (Rec. human uPA; read-out: IC50 uPA) of the same compound?
The IC50 was > 5 µM.

What about the inhibition at 5 µM (Rec. human tPA; at 5 μM, read-out: percent inhibition tPA) of the same compound?
The inhibition at 5 µM was 0%.

What about the IC50 (Rec. human tPA; read-out: IC50 tPA) of the same compound?
The IC50 was > 5 µM.

And the “EC2× (concentration required to double the clotting time)” value [1]?
The value was 702 nM.

What about the “clotting time compared to control, PT assay” value [2] of the same compound?
Its value is “No significant differences in clotting time compared to control assays”.

What about the “cytotoxicity to HUVECs” value [3] of the same compound?
Its value is “not toxic”.
